Publication PMC8222254, “Self-assembly of an anion receptor with metal-dependent kinase inhibition and potent in vitro anti-cancer properties” (Nature Communications, 2021)
Where “and” joins values, the source holds several entries; their conditions need not be identical. Equal entries are not always repeated.

Key:
Assay in all cases: Kinase inhibition screen, cell-free 33P ATP assay at 10 μM
Type in all cases: biochemical
[1] = molecular target: 140 purified human kinases (Homo sapiens, UniProt P28482)
Chain of 140 purified human kinases (Homo sapiens, UniProt P28482) (P28482 whole entry): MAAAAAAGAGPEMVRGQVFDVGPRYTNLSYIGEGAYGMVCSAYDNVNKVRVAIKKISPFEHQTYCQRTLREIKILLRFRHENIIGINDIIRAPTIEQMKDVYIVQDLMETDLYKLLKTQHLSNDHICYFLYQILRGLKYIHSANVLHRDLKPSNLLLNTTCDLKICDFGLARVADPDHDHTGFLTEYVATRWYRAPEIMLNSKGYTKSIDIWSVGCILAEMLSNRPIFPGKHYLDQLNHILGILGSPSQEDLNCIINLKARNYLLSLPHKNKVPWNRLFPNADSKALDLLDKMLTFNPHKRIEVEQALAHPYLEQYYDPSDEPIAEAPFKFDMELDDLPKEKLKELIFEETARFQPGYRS
Method in brief: (§1)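 Radiometric ^33P ATP cell-free format with purified enzymes; both complexes run at 10 μM in duplicate, results plotted on a kinome map via HGNC symbols.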

[2] = molecular target: T1, 140 purified human kinases (Homo sapiens, UniProt O00141)
T1 sequence (O00141 1-431): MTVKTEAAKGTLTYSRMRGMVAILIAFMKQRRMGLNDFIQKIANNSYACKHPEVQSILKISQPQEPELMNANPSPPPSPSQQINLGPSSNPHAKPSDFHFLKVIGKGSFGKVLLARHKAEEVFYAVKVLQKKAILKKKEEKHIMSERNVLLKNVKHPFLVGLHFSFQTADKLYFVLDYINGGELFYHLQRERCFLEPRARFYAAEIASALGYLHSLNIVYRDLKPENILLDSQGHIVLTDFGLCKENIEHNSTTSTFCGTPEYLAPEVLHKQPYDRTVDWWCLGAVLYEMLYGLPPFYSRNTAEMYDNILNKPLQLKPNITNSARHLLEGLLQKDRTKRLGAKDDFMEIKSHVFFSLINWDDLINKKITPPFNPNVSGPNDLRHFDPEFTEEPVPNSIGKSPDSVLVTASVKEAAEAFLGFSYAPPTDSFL
Method in brief: as §1

[3] = molecular target: 140 purified human kinases (Homo sapiens, UniProt P06213); settings: IR
Chain of 140 purified human kinases (Homo sapiens, UniProt P06213) (P06213 28-1382): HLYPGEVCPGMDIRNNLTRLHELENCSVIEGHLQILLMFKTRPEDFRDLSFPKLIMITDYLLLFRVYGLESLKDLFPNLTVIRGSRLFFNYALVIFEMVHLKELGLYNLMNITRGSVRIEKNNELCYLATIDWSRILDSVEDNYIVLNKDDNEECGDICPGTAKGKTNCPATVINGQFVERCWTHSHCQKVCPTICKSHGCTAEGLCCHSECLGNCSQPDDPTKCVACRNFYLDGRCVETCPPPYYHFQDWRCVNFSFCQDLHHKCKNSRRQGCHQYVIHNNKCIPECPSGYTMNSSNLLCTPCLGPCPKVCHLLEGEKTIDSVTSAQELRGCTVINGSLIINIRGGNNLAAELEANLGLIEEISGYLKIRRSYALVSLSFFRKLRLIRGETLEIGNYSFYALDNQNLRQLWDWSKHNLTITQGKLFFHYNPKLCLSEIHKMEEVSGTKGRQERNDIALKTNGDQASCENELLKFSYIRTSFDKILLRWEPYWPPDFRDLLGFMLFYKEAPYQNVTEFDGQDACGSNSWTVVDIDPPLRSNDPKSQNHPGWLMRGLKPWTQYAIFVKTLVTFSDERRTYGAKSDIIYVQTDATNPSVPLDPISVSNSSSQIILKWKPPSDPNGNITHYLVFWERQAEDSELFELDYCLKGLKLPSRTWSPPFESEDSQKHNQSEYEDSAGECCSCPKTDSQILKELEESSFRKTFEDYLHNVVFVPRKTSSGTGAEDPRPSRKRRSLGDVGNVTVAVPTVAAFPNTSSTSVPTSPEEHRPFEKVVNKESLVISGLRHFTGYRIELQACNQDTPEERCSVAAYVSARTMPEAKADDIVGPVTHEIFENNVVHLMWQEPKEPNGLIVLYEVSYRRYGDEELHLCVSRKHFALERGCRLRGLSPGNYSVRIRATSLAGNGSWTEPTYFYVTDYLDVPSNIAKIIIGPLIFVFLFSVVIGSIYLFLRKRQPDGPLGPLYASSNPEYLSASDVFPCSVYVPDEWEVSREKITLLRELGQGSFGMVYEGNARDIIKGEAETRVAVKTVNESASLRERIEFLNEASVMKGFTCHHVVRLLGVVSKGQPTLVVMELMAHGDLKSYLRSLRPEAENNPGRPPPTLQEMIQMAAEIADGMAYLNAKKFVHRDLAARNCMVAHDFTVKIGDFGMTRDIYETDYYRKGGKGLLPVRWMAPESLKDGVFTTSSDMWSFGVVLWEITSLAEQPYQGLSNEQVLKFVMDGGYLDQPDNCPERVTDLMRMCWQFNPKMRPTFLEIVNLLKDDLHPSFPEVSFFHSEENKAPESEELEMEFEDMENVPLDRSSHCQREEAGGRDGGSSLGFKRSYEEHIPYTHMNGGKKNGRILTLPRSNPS
Method in brief: as §1

[4] = molecular target: 140 purified human kinases (Homo sapiens, UniProt Q02763)
Chain of 140 purified human kinases (Homo sapiens, UniProt Q02763) (Q02763 23-1124): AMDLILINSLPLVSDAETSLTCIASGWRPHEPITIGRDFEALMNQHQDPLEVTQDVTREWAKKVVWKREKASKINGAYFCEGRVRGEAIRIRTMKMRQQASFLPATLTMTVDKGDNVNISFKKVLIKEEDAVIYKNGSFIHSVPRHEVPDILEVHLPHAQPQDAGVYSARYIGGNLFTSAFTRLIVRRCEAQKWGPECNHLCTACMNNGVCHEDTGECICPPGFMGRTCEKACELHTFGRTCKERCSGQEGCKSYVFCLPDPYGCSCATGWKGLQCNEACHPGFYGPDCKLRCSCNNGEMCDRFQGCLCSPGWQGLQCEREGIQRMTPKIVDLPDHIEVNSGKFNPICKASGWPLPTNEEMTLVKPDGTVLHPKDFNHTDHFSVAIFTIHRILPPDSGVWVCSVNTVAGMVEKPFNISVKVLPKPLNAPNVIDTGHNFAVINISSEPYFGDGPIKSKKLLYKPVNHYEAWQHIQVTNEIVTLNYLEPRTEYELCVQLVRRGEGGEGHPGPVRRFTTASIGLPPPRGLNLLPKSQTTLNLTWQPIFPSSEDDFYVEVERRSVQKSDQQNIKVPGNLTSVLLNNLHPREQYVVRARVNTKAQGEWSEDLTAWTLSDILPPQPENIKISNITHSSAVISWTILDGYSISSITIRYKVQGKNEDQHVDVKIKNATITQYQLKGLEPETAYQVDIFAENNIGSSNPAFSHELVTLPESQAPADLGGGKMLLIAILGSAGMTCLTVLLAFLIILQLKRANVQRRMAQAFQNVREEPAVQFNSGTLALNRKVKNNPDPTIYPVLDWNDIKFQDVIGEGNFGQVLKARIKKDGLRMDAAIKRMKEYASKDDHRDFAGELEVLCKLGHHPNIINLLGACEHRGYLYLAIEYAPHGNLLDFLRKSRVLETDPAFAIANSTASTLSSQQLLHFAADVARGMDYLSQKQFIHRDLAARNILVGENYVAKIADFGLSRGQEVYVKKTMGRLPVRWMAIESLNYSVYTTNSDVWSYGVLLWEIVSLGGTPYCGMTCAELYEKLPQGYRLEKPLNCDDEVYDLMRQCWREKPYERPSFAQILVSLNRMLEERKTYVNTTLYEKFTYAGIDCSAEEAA
Method in brief: as §1

[5] = molecular target: T2, 140 purified human kinases (Homo sapiens, UniProt O14920); settings: IKKb; for % Activity inhibition Mean / % Activity inhibition Run 1 / % Activity inhibition Run 2 / % Activity remaining Run 1 / % Activity remaining Run 2: 10 µM
T2 sequence (O14920 1-756): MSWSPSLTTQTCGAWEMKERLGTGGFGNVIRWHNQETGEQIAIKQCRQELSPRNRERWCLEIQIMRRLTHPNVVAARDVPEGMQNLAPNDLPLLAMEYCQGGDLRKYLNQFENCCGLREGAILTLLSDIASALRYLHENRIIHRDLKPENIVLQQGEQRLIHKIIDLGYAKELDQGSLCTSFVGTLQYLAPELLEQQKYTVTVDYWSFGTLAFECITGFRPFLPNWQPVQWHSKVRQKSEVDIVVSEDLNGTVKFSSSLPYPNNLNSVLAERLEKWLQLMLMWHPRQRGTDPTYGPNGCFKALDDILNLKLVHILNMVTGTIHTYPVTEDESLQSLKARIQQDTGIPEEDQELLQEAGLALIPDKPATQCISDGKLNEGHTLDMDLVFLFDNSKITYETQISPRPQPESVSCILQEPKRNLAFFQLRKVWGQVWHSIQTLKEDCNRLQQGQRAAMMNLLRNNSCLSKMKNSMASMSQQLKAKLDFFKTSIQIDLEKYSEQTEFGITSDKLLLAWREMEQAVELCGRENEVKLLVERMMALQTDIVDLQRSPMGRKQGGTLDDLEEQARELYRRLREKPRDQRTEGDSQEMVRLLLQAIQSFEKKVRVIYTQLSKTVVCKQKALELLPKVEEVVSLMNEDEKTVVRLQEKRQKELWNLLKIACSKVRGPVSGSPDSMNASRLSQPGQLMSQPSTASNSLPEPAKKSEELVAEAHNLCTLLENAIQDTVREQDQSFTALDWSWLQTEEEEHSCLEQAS
Method in brief: as §1

[6] = molecular target: T3, 140 purified human kinases (Homo sapiens, UniProt Q8IVH8)
T3 sequence (Q8IVH8 1-894): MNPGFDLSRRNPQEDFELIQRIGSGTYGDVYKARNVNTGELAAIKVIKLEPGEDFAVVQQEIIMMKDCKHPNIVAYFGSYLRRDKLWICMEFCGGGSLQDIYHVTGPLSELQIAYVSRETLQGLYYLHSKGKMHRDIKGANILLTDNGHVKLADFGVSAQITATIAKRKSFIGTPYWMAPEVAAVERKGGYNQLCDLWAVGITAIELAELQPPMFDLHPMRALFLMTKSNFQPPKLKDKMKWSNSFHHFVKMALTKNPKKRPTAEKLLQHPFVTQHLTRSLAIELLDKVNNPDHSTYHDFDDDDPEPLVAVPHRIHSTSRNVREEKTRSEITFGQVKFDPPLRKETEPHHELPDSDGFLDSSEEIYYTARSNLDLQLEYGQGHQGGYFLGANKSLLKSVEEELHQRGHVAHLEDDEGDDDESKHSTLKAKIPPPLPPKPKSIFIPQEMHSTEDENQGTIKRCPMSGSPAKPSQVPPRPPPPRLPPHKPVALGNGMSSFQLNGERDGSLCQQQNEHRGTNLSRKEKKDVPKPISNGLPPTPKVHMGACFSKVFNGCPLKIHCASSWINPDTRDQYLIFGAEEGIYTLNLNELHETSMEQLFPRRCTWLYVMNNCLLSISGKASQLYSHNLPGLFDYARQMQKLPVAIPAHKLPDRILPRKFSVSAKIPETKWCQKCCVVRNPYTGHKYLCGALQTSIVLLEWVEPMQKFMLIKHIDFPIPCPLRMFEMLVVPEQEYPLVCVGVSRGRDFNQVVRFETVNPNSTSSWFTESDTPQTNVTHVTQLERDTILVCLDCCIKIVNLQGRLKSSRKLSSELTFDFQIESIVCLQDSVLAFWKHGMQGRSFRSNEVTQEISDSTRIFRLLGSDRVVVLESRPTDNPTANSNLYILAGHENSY
Method in brief: as §1

## [Cu+2].[Cu+2].[Cu+2].c1ccc(-c2csc(NCCN(CCNc3nc(-c4ccccn4)cs3)CCNc3nc(-c4ccccn4)cs3)n2)nc1.c1ccc(-c2csc(NCCN(CCNc3nc(-c4ccccn4)cs3)CCNc3nc(-c4ccccn4)cs3)n2)nc1 [[L2Cu3]6+]
[1]; ERK2
  % Inhibition Run 1: 12.1%
  % Inhibition Run 2: 8.4%
  % Inhibition, Mean: 10%
  mean % activity: 90%
[1]; ERK2, Run 1
  % activity: 87.9%
[1]; ERK2, Run 2
  % activity: 91.6%
[2]; SGK1
  % Inhibition Run 1: 85.6%
  % Inhibition Run 2: 88.5%
  % Inhibition, Mean: 87%
  mean % activity: 13%
[2]; SGK1, Run 1
  % activity: 14.4%
[2]; SGK1, Run 2
  % activity: 11.5%
[3]
  % Inhibition Run 1: 20%
  % Inhibition Run 2: 18.1%
  % Inhibition, Mean: 19%
  mean % activity: 81%
[3]; Run 1
  % activity: 80%
[3]; Run 2
  % activity: 81.9%
[4]; TIE2
  % Inhibition Run 1: 73.2%
  % Inhibition Run 2: 55%
  % Inhibition, Mean: 64%
  mean % activity: 36%
[4]; TIE2, Run 1
  % activity: 26.8%
[4]; TIE2, Run 2
  % activity: 45%
[5]
  % Inhibition Run 1: 92.1%
  % Inhibition Run 2: 92.5%
  % Inhibition, Mean: 92%
  mean % activity: 8%
  % Activity inhibition Mean: 92.3%
  % Activity inhibition Run 1: 92.1%
  % Activity inhibition Run 2: 92.5%
  % Activity remaining Run 1: 7.90%
  % Activity remaining Run 2: 7.50%
[5]; Run 1
  % activity: 7.9%
[5]; Run 2
  % activity: 7.5%
[6]; MAP4K3
  % Inhibition Run 1: 72.4%
  % Inhibition Run 2: 85.5%
  % Inhibition, Mean: 79%
  mean % activity: 21%
[6]; MAP4K3, Run 1
  % activity: 27.6%
[6]; MAP4K3, Run 2
  % activity: 14.5%

## CC(=O)[O-].CC(=O)[O-].CC(=O)[O-].CC(=O)[O-].CC(=O)[O-].CC(=O)[O-].[Zn+2].[Zn+2].[Zn+2].c1ccc(-c2csc(NCCN(CCNc3nc(-c4ccccn4)cs3)CCNc3nc(-c4ccccn4)cs3)n2)nc1.c1ccc(-c2csc(NCCN(CCNc3nc(-c4ccccn4)cs3)CCNc3nc(-c4ccccn4)cs3)n2)nc1 [[L2Zn3]6+]
[1]; ERK2
  % Inhibition, Mean: 18%
  % Inhibition, Run 1 / Run 2: 19% and 18%
  mean % activity: 82%
[1]; ERK2, duplicate runs
  % activity: 81% and 82%
[2]; SGK1
  % Inhibition, Mean: 37%
  % Inhibition, Run 1 / Run 2: 43% and 32%
  mean % activity: 63%
[2]; SGK1, duplicate runs
  % activity: 57% and 68%
[3]
  % Inhibition, Mean: 12%
  mean % activity: 88%
[3]; duplicate runs
  % activity: 80% and 95%
[4]; TIE2
  % Inhibition, Mean: 85%
  % Inhibition, Run 1 / Run 2: 92% and 78%
  mean % activity: 15%
[4]; TIE2, 10 µM
  % Activity inhibition Mean: 84.5%
  % Activity inhibition Run 1: 92%
  % Activity inhibition Run 2: 77%
  % Activity remaining Run 1: 8%
  % Activity remaining Run 2: 23%
[5]
  % Inhibition, Mean: 92%
  % Inhibition, Run 1 / Run 2: 94% and 90%
  mean % activity: 8%
  % Activity inhibition Mean: 92.0%
  % Activity inhibition Run 1: 94%
  % Activity inhibition Run 2: 90%
  % Activity remaining Run 1: 6%
  % Activity remaining Run 2: 10%
[5]; duplicate runs
  % activity: 6% and 10%
[6]; MAP4K3
  % Inhibition, Mean: 45%
  % Inhibition, Run 1 / Run 2: 48% and 43%
  mean % activity: 55%
[6]; MAP4K3, duplicate runs
  % activity: 52% and 58%
